Source: PubChem BioAssay (NCI)
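Test compounds were applied to cells in 96-well plates for 48 hours at 5 doses. TGI marks complete inhibition of growth.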

Assays:
Test in all cases: NCI-60 cell line screen, 48 h
[1] = test system: MCF7 breast
[2] = test system: OVCAR-3 ovarian
[3] = test system: CCRF-CEM leukemia
[4] = test system: MALME-3M melanoma
[5] = test system: PC-3 prostate
[6] = test system: U251 CNS
[7] = test system: LOX IMVI melanoma
[8] = test system: NCI/ADR-RES ovarian
[9] = test system: NCI-H460 lung
[10] = test system: SW-620 colon
[11] = test system: HS 578T breast
[12] = test system: SK-MEL-28 melanoma
[13] = test system: SNB-75 CNS
[14] = test system: M14 melanoma
[15] = test system: OVCAR-5 ovarian
[16] = test system: HT29 colon
[17] = test system: HCC-2998 colon
[18] = test system: NCI-H522 lung
[19] = test system: SR leukemia
[20] = test system: T-47D breast
[21] = test system: DU-145 prostate
[22] = test system: RPMI-8226 leukemia
[23] = test system: MDA-N
[24] = test system: SF-295 CNS
[25] = test system: UACC-62 melanoma
[26] = test system: SK-OV-3 ovarian
[27] = test system: HCT-15 colon
[28] = test system: MDA-MB-231 breast
[29] = test system: OVCAR-4 ovarian
[30] = test system: NCI-H226 lung
[31] = test system: HL-60(TB) leukemia
[32] = test system: UO-31 renal
[33] = test system: COLO 205 colon
[34] = test system: SN12C renal
[35] = test system: SNB-19 CNS
[36] = test system: NCI-H23 lung
[37] = test system: HOP-92 NSCLC
[38] = test system: SF-268 CNS
[39] = test system: ACHN renal
[40] = test system: RXF 393 renal
[41] = test system: 786-0 renal
[42] = test system: CAKI-1 renal
[43] = test system: SF-539 CNS
[44] = test system: K-562 leukemia
[45] = test system: A498 renal
[46] = test system: SK-MEL-5 melanoma
[47] = test system: MDA-MB-435
[48] = test system: SK-MEL-2 melanoma
[49] = test system: IGROV1 ovarian
[50] = test system: TK-10 renal
[51] = test system: HCT-116 colon
[52] = test system: HOP-62 NSCLC
[53] = test system: EKVX NSCLC
[54] = test system: MOLT-4 leukemia
[55] = test system: UACC-257 melanoma
[56] = test system: OVCAR-8 ovarian
[57] = test system: A549 NSCLC
[58] = test system: KM12 colon

Structure (SMILES): CCOC(=O)c1c2c(c(O)c3ccccc3c(O)n(Cc3ccccc3)c1C)C(=O)C=CC2=O
- TGI [1]: 769 nM
- TGI [2]: > 100 µM
- TGI [3]: > 100 µM
- TGI [4]: > 100 µM
- TGI [5]: > 100 µM
- TGI [6]: > 100 µM
- TGI [7]: > 100 µM
- TGI [8]: > 100 µM
- TGI [9]: > 100 µM
- TGI [10]: > 100 µM
- TGI [11]: > 100 µM
- TGI [12]: > 100 µM
- TGI [13]: > 100 µM
- TGI [14]: > 100 µM
- TGI [15]: > 100 µM
- TGI [16]: > 100 µM
- TGI [17]: > 100 µM
- TGI [18]: 92.7 µM
- TGI [19]: > 100 µM
- TGI [20]: > 100 µM
- TGI [21]: > 100 µM
- TGI [22]: > 100 µM
- TGI [23]: > 100 µM
- TGI [24]: > 100 µM
- TGI [25]: > 100 µM
- TGI [26]: > 100 µM
- TGI [27]: > 100 µM
- TGI [28]: > 100 µM
- TGI [29]: > 100 µM
- TGI [30]: > 100 µM
- TGI [31]: > 100 µM
- TGI [32]: > 100 µM
- TGI [33]: > 100 µM
- TGI [34]: > 100 µM
- TGI [35]: > 100 µM
- TGI [36]: > 100 µM
- TGI [37]: > 100 µM
- TGI [38]: > 100 µM
- TGI [39]: > 100 µM
- TGI [40]: 75.9 µM
- TGI [41]: > 100 µM
- TGI [42]: > 100 µM
- TGI [43]: > 100 µM
- TGI [44]: > 100 µM
- TGI [45]: > 100 µM
- TGI [46]: > 100 µM
- TGI [47]: > 100 µM
- TGI [48]: > 100 µM
- TGI [49]: > 100 µM
- TGI [50]: > 100 µM
- TGI [51]: > 100 µM
- TGI [52]: > 100 µM
- TGI [53]: > 100 µM
- TGI [54]: > 100 µM
- TGI [55]: > 100 µM
- TGI [56]: > 100 µM
- TGI [57]: > 100 µM
- TGI [58]: > 100 µM
